Ki and IC50 data for 20 compounds are collected here from patent US10196373B2, “Substituted 2-hydroxy-4-(2-(phenylsulfonamido)acetamido)benzoic acid analogs as inhibitors of STAT protein” (University of Central Florida Research Foundation, Inc., priority 2010, dated 2019).

Usually Ki stands for the dissociation constant of the complex between target and ligand, obtained from inhibition or displacement. The IC50 is the point on the concentration scale where inhibition reaches its midpoint.

The target of test [1] is STAT3 (Homo sapiens (Human), UniProt P40763). Nature of the test: Fluorescence polarization assay, inhibition of binding to STAT3. The settings on record: inhibition of binding to STAT3 in a fluorescence polarization assay; read-out: Ki (FP). Here is the method: The fluorescent polarization experiments were performed on an Infinite M1000 (Tecan, Crailsheim, Germany). All assays were performed in the same buffer conditions of 50 mM NaCl, 10 mM Hepes, pH 7.5, 1 mM EDTA, and 2 mM dithiothreitol. Fluorescent-labelled peptides were kept at a final concentration of 10nM in buffered solution. […] of labelled peptides were added to […] of a 300 nM STAT3 protein solution (provided by SignalChem in 50 mM Tris-HCl, pH 7.5, 150 mM NaCl, 0.25 mM DTT, 0.1 mM PMSF, 25% glycerol and stored at −80° C.). Inhibitory molecules were dissolved in pure DMSO and diluted using buffer solution to produce four final concentrations ([…]). 7.5 μL of the inhibitory molecule solution was mixed with the STAT3 protein and labelled peptide solution in black 384-flat well microplates (Coming), and incubated for 15-30 minutes. The M1000 performed a shaking cycle and then read the plates. IC50′s were derived from the output using the curve-fitting software OriginPro 8 (Northampton, MA). The FP data was modelled by the following equation:
[formula] where X was the concentration of inhibitor and ρwas the corresponding fluorescence at that concentration. The free parameter was half the maximal inhibitory concentration (IC50) and the limiting values was the maximal measured fluorescence polarization (ρ1) and the minimal fluorescence polarization (ρ2). Origin curve fitting software utilizes the Levenberg-Marquardt algorithm and reduced chi-square criterion for convergence. The inhibitor dissociation constant, Ki, was calculated from the derived IC50 values, as per the following formula: […]
Further details of the fluorescence polarization assay are as described previously (Zhang X, et al. (2010) A novel small-molecule disrupts Stat3 SH2domainphosphotyrosine interactions and Stat3-dependent tumor processes. Biochem Pharmacol 79: 1398-1409).
For orientation: In fluorescence polarisation assays a small probe gives low polarisation when free and higher when bound to something large.

Test [2] has as its target STAT3 (Mus musculus, UniProt P42227). Briefly: Stat3 DNA-binding activity, electrophoretic mobility shift assay (EMSA) with nuclear extracts. It is filed as biochemical. As for the experimental part:
Nuclear extract preparations and electrophoretic mobility shift assay (EMSA) were carried out as previously described (Yang J, et al. (2005) Cancer Res. 65:939-947). […] For direct effect of a test compound on Stat3 DNA-binding activity, nuclear extracts were pre-incubated with the agent for 30 min at room temperature prior to incubation with the radiolabeled probe for 30 min at 30° C. before subjecting to EMSA analysis. […] Cytosolic extract preparation from mammalian cells and luciferase assay previously described (Zhang X, et al. (2010) Biochem Pharmacol 79:1398-1409; Turkson J, et al. (1999) Mol. Cell. Biol. 19:7519-7528; Turkson J, et al. (1998) Mol. Cell. Biol. 18:2545-2552).)

For test [3], the system named is HL60 cells. Briefly: Cell viability, MTS assay. It is filed as cell-based. To be noted: Homo sapiens, HL-60, HL60, 72 hours. Here is the method:
(§1) To further test activity of these molecules, a whole-cell study involving cancer lines with known abherrant STAT3 expression was conducted. These human cell lines, including prostate cancer (DU145), breast cancer (MDA468), and promyelocytic leukemia (HL-60) were treated with the peptidomimetics and incubated for 72 hours. Disruption of cell viability was measured by MTS assay and IC50 values for the potential inhibitors was determined. OriginPro 8 (Northampton, Mass.) was used to evaluate EC50 using the dose response curve defined as follows:
(§2) [formula] where y is the fraction of death, x is the log of drug concentration. A2 is the top asymptote, A1 is the bottom asymptote, logx0 is the center of the curve, and p is the hill slope.
In general terms: Tetrazolium dyes change colour on reduction, which living cells bring about.

Test [4] concerns DU-145 cells. Nature of the test: Cell viability, MTS assay. It is filed as cell-based. To be noted: Homo sapiens, DU-145, 72 hours. As for the experimental part: as §1, §2
Test [5] has as its system MDA-468 cells. Nature of the test: Cell viability, MTS assay. The test is classed as cell-based. To be noted: Homo sapiens, MDA-468, 72 hours. Here is the method: as §1, §2
In test [6] the test system is OCI-AMI.2 cells. Nature of the test: Cell viability, MTS assay. It is filed as cell-based.
The mark [7] stands for this setting: inhibition of STAT3 activity in an EMSA.

Like-named read-outs stand apart in the source and are kept apart here.

STAT3 (Homo sapiens (Human), UniProt P40763), sequence (P40763 whole entry): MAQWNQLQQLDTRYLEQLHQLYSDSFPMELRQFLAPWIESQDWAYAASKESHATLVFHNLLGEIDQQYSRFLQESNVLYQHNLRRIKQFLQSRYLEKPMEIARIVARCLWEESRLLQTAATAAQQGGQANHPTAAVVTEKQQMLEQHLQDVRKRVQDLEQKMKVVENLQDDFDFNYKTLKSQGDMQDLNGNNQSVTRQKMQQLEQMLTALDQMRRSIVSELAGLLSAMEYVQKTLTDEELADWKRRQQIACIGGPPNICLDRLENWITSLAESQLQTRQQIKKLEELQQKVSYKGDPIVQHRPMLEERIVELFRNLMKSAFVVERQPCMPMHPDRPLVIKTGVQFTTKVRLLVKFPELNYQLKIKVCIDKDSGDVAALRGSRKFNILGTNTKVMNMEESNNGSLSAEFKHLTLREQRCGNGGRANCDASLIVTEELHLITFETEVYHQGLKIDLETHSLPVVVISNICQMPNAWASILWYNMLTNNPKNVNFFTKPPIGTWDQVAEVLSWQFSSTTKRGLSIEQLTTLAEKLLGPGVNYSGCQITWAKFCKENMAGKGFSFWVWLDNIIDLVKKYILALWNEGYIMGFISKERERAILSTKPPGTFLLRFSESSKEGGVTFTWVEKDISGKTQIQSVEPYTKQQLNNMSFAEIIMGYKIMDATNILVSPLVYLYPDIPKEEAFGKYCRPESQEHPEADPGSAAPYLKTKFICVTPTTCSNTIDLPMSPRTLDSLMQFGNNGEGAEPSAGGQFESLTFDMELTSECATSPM
STAT3 (Mus musculus, UniProt P42227), sequence (P42227 2-770 limits assumed): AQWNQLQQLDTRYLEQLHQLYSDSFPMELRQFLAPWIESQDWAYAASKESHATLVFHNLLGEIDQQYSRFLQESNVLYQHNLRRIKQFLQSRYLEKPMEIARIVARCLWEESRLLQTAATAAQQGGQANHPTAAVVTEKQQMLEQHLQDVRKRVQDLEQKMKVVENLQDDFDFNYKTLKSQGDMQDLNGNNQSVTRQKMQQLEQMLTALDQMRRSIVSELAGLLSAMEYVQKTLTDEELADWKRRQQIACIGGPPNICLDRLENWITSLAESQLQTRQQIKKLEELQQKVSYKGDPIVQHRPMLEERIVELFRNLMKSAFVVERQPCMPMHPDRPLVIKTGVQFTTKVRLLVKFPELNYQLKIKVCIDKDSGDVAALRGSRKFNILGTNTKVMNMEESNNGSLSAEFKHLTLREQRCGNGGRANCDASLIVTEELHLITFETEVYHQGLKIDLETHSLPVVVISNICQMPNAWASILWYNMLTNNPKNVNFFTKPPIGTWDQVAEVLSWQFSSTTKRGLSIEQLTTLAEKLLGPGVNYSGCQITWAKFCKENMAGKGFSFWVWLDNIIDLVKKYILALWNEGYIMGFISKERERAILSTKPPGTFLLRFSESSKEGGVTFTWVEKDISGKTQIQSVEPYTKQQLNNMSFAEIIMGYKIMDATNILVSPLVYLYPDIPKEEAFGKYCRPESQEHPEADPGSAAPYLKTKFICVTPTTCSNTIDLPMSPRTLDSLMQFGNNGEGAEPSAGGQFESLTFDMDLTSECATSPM

In the case of `Cc1ccc(S(=O)(=O)N(C)CC(=O)N(Cc2ccc(C3CCN(S(=O)(=O)c4ccc(C#N)cc4)CC3)cc2)c2ccc(C(=O)O)c(O)c2)cc1` [Compound 27KG, 4-(N-(4-(1-((4-cyanophenyl)sulfonyl)piperidin-4-yl)benzyl)-2-(N,4-dimethylphenyl-sulfonamido)acetamido)-2-hydroxybenzoic acid], in test [1], the Ki was found to be 21.5 ± 2.2 µM. Besides, the IC50 was 50 ± 15 µM in test [2] (setting [7]); 83.1 ± 13.5 µM in test [3]; above 100 µM in test [4]; 94.9 ± 8.8 µM in test [5]; above 100 µM in test [6].
Consider `Cc1ccc(S(=O)(=O)N(C)CC(=O)N(Cc2ccc(-c3ccc(C(=O)O)cc3)cc2)c2ccc(C(=O)O)c(O)c2)cc1` [Compound 27LE, 4′-((N-(4-carboxy-3-hydroxyphenyl)-2-(N,4-dimethylphenylsulfonamido)acetamido)methyl)-[1,1′-biphenyl]-4-carboxylic acid], for which the IC50 in test [3] is 68 ± 32.8 µM; in test [4], above 100 µM; in test [5], 52.9 ± 22.5 µM; in test [6], 76.7 ± 27.1 µM.
In the case of `Cc1ccc(S(=O)(=O)N(C)CC(=O)N(Cc2ccc(-c3ccc(-c4cccc(C#N)c4)cc3)cc2)c2ccc(C(=O)O)c(O)c2)cc1` [Compound 27NC], the IC50 is 82.8 ± 19 µM in test [3], above 100 µM in test [4], 90.5 ± 63.2 µM in test [5] and above 100 µM in test [6].
Consider `COC(=O)c1ccc(-c2ccc(-c3ccc(CN(C(=O)CN(C)S(=O)(=O)c4ccc(C)cc4)c4ccc(C(=O)O)c(O)c4)cc3)cc2)cc1` [Compound 27NE], for which the half-inhibitory concentration (IC50) in test [3] is above 100 µM; in test [4], above 100 µM; in test [5], 96.3 ± 31.7 µM; in test [6], above 100 µM.
As to `Cc1ccc(S(=O)(=O)N(C)CC(=O)N(Cc2ccc(-c3ccc(-c4ccc(C#N)cc4)cc3)cc2)c2ccc(C(=O)O)c(O)c2)cc1` [Compound 27NG, 4-(N-((4′-cyanoterphenyl-4-yl)methyl)-2-(N,4-dimethylphenylsulfonamido)acetamido)-2-hydroxybenzoic acid], the IC50 in test [3] came to 37.4 ± 14 µM; in test [4], 94.4 ± 6.8 µM; in test [5], 32.5 ± 15.5 µM; in test [6], 58.4 ± 13.8 µM.
Turning to `Cc1ccc(S(=O)(=O)N(C)CC(=O)N(Cc2ccc(-c3ccc(-c4ccc(C(N)=O)cc4)cc3)cc2)c2ccc(C(=O)O)c(O)c2)cc1` [Compound 27NH, 4-(N-((4″-carbamoyl-[1,1′:4′,1″-terphenyl]-4-yl)methyl)-2-(N,4-dimethylphenylsulfonamido)acetamido)-2-hydroxybenzoic acid], the inhibition constant Ki in test [1] was 16.7 ± 1.7 µM. The half-maximal inhibitory concentration (IC50) in test [2] came out at 43 ± 1.3 µM.
For `Cc1cccc(S(=O)(=O)N(C)CC(=O)N(Cc2ccc(C3CCCCC3)cc2)c2ccc(C(=O)O)c(O)c2)c1` [Compound 45A, 4-(N-(4-cyclohexylbenzyl)-2-(N,3-dimethylphenylsulfonamido)acetamido)-2-hydroxy-benzoic acid], the half-maximal inhibitory concentration (IC50) stood at 78.5 ± 1.8 µM in test [3], 90.4 ± 3.1 µM in test [4], 59.6 ± 4 µM in test [5] and 85.9 ± 0.4 µM in test [6].
For `CN(CC(=O)N(Cc1ccc(C2CCCCC2)cc1)c1ccc(C(=O)O)c(O)c1)S(=O)(=O)c1ccc2ccccc2c1` [Compound 45D, 4-(N-(4-cyclohexylbenzyl)-2-(N-methylnaphthalene-2-sulfonamido)acetamido)-2-hydroxy-benzoic acid], the IC50 in test [2] (setting [7]) was 79.2 ± 11.2 µM; in test [3] it was 99.8 ± 15.6 µM; in test [4] it was 81 ± 39.3 µM; in test [5] it was 45.4 ± 23.2 µM; in test [6] it was 93.5 ± 32.2 µM.
For `CN(C)c1cccc2c(S(=O)(=O)N(C)CC(=O)N(Cc3ccc(C4CCCCC4)cc3)c3ccc(C(=O)O)c(O)c3)cccc12` [Compound 45G, 4-(N-(4-cyclohexylbenzyl)-2-(5-(dimethylamino)-N-methylnaphthalene-1-sulfonamido)acetamido)-2-hydroxybenzoic acid], the IC50 in test [3] was 74.9 ± 20.2 µM; in test [4] it was above 100 µM; in test [5], 45.5 ± 7.9 µM; in test [6], above 100 µM.
For `CN(CC(=O)N(Cc1ccc(C2CCCCC2)cc1)c1ccc(C(=O)O)c(O)c1)S(=O)(=O)c1cn(C)cn1` [Compound 45H, 4-(N-(4-cyclohexylbenzyl)-2-(N,1-dimethyl-1H-imidazole-4-sulfonamido)acetamido)-2-hydroxybenzoic acid], the half-inhibitory concentration (IC50) in test [3], in test [4], in test [5] and in test [6] was above 100 µM throughout.
Consider `CN(CC(=O)N(Cc1ccc(C2CCCCC2)cc1)c1ccc(C(=O)O)c(O)c1)S(=O)(=O)c1ccc(C#N)cc1` [Compound 45I, 4-(2-(4-cyano-N-methylphenylsulfonamido)-N-(4-cyclohexylbenzyl)acetamido)-2-hydroxy-benzoic acid], for which the IC50 in test [3] was determined as 59.1 ± 11.5 µM; in test [4], 69.6 ± 3.4 µM; in test [5], 27 ± 2.7 µM; in test [6], 53.5 ± 22.8 µM.
The corresponding values for `CN(CC(=O)N(Cc1ccc(C2CCCCC2)cc1)c1ccc(C(=O)O)c(O)c1)S(=O)(=O)c1ccc(Br)cc1` [Compound 45J] are 47.4 ± 8.2 µM, 45.9 ± 8.6 µM, 19.5 ± 2 µM and 44.9 ± 7.1 µM.
As to `CN(CC(=O)N(Cc1ccc(C2CCCCC2)cc1)c1ccc(C(=O)O)c(O)c1)S(=O)(=O)c1ccc(Cl)cc1` [Compound 45K, 4-(2-(4-chloro-N-methylphenylsulfonamido)-(4-cyclohexylbenzyl)acetamido)-2-hydroxy-benzoic acid], the IC50 in test [3] amounted to 56.3 ± 9.3 µM; in test [4] it was 67.5 ± 24.2 µM; in test [5] it was 29.7 ± 16.7 µM; in test [6], 76.4 ± 10.8 µM.
Consider `CN(CC(=O)N(Cc1ccc(C2CCCCC2)cc1)c1ccc(C(=O)O)c(O)c1)S(=O)(=O)c1ccc(F)cc1` [Compound 45L, 4-(N-(4-cyclohexylbenzyl)-2-(4-fluoro-N-methylphenylsulfonamido)acetamido)-2-hydroxy benzoic acid], for which the IC50 stood at 75.1 ± 25.1 µM in test [3], 72.7 ± 18.4 µM in test [4], 41.3 ± 5.7 µM in test [5] and 84.4 ± 22.1 µM in test [6].
With `COc1ccc(S(=O)(=O)N(C)CC(=O)N(Cc2ccc(C3CCCCC3)cc2)c2ccc(C(=O)O)c(O)c2)cc1` [Compound 45M, 4-(N-(4-cyclohexylbenzyl)-2-(4-methoxy-N-methylphenylsulfonamido)acetamido)-2-hydroxybenzoic acid], the IC50 in test [3] was above 100 µM; in test [4], 92.7 ± 27.9 µM; in test [5], 71.4 ± 13.6 µM; in test [6], above 100 µM.
In the case of `CN(CC(=O)N(Cc1ccc(C2CCCCC2)cc1)c1ccc(C(=O)O)c(O)c1)S(=O)(=O)c1ccc([N+](=O)[O-])cc1` [Compound 45N, 4-(N-(4-cyclohexylbenzyl)-2-(N-methyl-4-nitrophenylsulfonamido)acetamido)-2-hydroxy benzoic acid], the IC50 in test [3] is 99.3 ± 62.1 µM; in test [4], above 100 µM; in test [5], 51.7 ± 14.2 µM; in test [6], 96.3 ± 18.5 µM.
For `Cc1ccc(S(=O)(=O)N(CC(=O)N(Cc2ccc(C3CCCCC3)cc2)c2ccc(C(=O)O)c(O)c2)Cc2ccc(OC(F)(F)F)cc2)cc1` [XW1-077], in test [1], the Ki is 5.9 ± 0.6 µM.
On the same count and under the same terms, in the case of `Cc1ccc(S(=O)(=O)N(CC(=O)N(Cc2ccc(C3CCCCC3)cc2)c2ccc(C(=O)O)c(O)c2)Cc2cccc(C(F)(F)F)c2)cc1` [XW1-079] it was 5.1 ± 0.4 µM; in that of `COC(=O)c1cccc(CN(CC(=O)N(Cc2ccc(C3CCCCC3)cc2)c2ccc(C(=O)O)c(O)c2)S(=O)(=O)c2ccc(C)cc2)c1` [XW1-081], 9.2 ± 0.8 µM.
On the same count and under the same terms, with `COC(=O)c1ccc(CN(CC(=O)N(Cc2ccc(C3CCCCC3)cc2)c2ccc(C(=O)O)c(O)c2)S(=O)(=O)c2ccc(C)cc2)cc1` [XW1-083] the figure was 5.8 ± 0.6 µM.
